These results are taken from patent US6605704B1, “Plant-origin regulator protein and nucleic acid encoding the same” (Japan Tobacco Inc., priority 1999, dated 2003).

Assay [1] deals with mRNA of ZmCip1. To be noted: 5 μM, 100 minutes, nitrogen-deficient leaves. As for the experimental part: (§1) The cut leaves of the maize cultivated under the low-nitrogen condition as mentioned above were treated with 16 mM NaNO3 solution or with 0.08 mM NaNO3 solution for 0 hour, 2 hours, 5 hours, […] or 24 hours and Northern analysis was carried out in the same manner as in (4) except that the weight of the RNAs applied to each gel was 20 μg, respectively, and that a non-coding region of ZmCip1 was used as a probe.
The cut leaves of the maize cultivated under the low-nitrogen condition as mentioned above were treated with 5 μM t-zeatin, 5 μM zeatin-O-glucoside or with water for 100 minutes, and Northern analysis was performed in the same manner as in (5), except that the amount of the RNAs applied to each gel was 15 μg.

Assay [2] concerns mRNA of ZmCip1. To be noted: 5 μM, nitrogen-deficient maize green leaves. How it is done:
(§2) The cut leaves of the maize cultivated under the low-nitrogen condition as mentioned above was treated with 5 μM t-zeatin or with water for 0 minute, 30 minutes, 45 minutes, 60 minutes or 90 minutes, and the ⅓ portions from the distal ends of the leaves was collected. After freezing the collected leaves with liquid nitrogen, RNAs were extracted by the guanidine thiocyanate/cesium chloride method. Ten micrograms of the obtained RNAs were fractionated by formaldehyde gel (1%) electrophoresis and the resultant was transferred to a nylon membrane. Hybridization was performed using ZmCip1 cDNA or maize ubiquitin gene as a probe.

The test system of assay [3] is ZmCip1 gene.
Description: (3) Assay of Induction of Expression of CIP 1 by Cytokinin Treatment (Run-Off Transcription Assay) Run-off transcription assay for expression of ZmCip1 gene was carried out. Nuclei were isolated from maize mesophyll cells and its RNA synthesis activity was measured according to a reported method (I. Suzuki, C. Cretin, T. Omata, T. Sugiyama, Plant Physiol.105:1223,1994). The RNAs synthesized by the isolated nuclei were fractionated by formaldehyde gel electrophoresis and the fractionated RNAs were transferred to a nylon membrane, followed by hybridization with ^32P-labeled ZmCip 1 cDNA or C4Ppc1 cDNA. The intensity of the detected signal was measured by Bio Imaging Analyzer (BAS2000, Fuji Film).
Assay [4] concerns mRNA of ZmCip1. Kind of assay: Northern analysis after t-zeatin, benzyladenine or abscisic acid treatment of cut leaves. To be noted: 100 or 180 minutes, nitrogen-deficient leaves. The assay is classed as cell-based, maize (Zea mays L.cv. Golden Cross Bantam T51). As for the experimental part:
as §2
(10) The cut leaves of the maize cultivated under the low-nitrogen condition as mentioned above were treated with 5 μM t-zeatin, 5 μM benzyladenine, 10 μM±abscisic acid or with water for 100 minutes or 180 minutes, and Northern analysis was performed as in (4).

Assay [5] deals with mRNA of ZmCip1. To be noted: 10^−11 to 10^−7 M tested, 100 or 180 minutes, cut leaves. As for the experimental part:
as §1

Assay [6] concerns mRNA of ZmCip1. How it is done:
as §2, §1

Assay [7] deals with mRNA of ZmCip1. To be noted: 16 mM NaNO3, 5 hours after treatment. How it is done: as §1
The maize cultivated under the low-nitrogen condition as mentioned above was treated with 16 mM NaNO3 solution or with 0.08 mM NaNO3 solution for 5 hours, and its leaf blades, leaf sheaths and roots were separately collected, followed by Northern analysis in the same manner as in (5) except that the amount of the RNAs from leaf sheaths or roots applied to each gel was 30 μg.

Assay [8] deals with mRNA of ZmCip 1. Nature of the assay: Northern analysis of induction of expression of CIP1 by cytokinin treatment and cycloheximide treatment. The format is cell-based, maize (Zea mays L.cv. Golden Cross Bantam T51). To be noted: as printed under experiment (8), nitrogen-deficient maize green leaves. As for the experimental part: as §1
The cut leaves of the maize cultivated under the low-nitrogen condition as mentioned above were treated (i) with water for 60 minutes and then with water for 90 minutes, (ii) with water for 60 minutes and then with 5 μM t-zeatin for 90 minutes, (iii) with 20 μg/ml of cycloheximide for 60 minutes and then with 20 μg/ml cycloheximide and 5 μM t-zeatin for 90 minutes, or (iv) with 20 μg/ml of cycloheximide for 60 minutes and then with 20 μg/ml of cycloheximide for 90 minutes, and Northern analysis was performed in the same manner as in (5) except that the amount of the RNAs applied to each gel was 30 μg.

The subject of assay [9] is mRNA of ZmCip1. Kind of assay: Northern analysis of induction of expression of CIP1 by ammonium ion, cut leaves. To be noted: 6 mM NH4+, nitrogen-deficient maize green leaves. The format is cell-based, maize (Zea mays L.cv. Golden Cross Bantam T51). As for the experimental part:
as §1
The cut leaves of the maize cultivated under the low-nitrogen condition as mentioned above were treated with 6 mM NH4^+ solution or with 0.08 mM NaNO3 solution for 0 to 7 hours and Northern analysis was carried out in the same manner as in (5) except that the weight of the RNAs applied to each gel was 15 μg.

Like-named read-outs stand apart in the source and are kept apart here.

With zeatin-O-glucoside, in assay [1], the “induction of expression of ZmCip1 mRNA” value is on record as “induced”.
As for `C/C(=C\CNc1ncnc2[nH]cnc12)CO` [t-zeatin], in [2], the “time after treatment at which accumulation of ZmCip1 mRNA was confirmed” value was found to be 30 min and the “time after treatment at which the gene was strongly expressed” value was in the range of 45 to 90 min. In addition, in assay [3] (cut leaves of maize cultivated under low-nitrogen condition, nuclei from mesophyll cells), the “treatment time that causes transcription of ZmCip1 mRNA” value was found to be 20 min. Further, the “timing of ZmCip1 transcription compared with transcription of C4Ppc1 mRNA” value in assay [3] (same leaves treated with t-zeatin) is recorded as “much earlier stage”. Also, the “induction of expression of ZmCip1 mRNA” value in assay [4] (5 μM) was “induced”. Moreover, the “low level of t-zeatin at which expression of ZmCip1 mRNA was induced” value in assay [5] was 10^−9 M. Besides, the “induction of expression of ZmCip1 mRNA” value in assay [1] is reported as “induced”.
Turning to `c1ccc(CNc2ncnc3nc[nH]c23)cc1` [benzyladenine], in [4] (5 μM), the “induction of expression of ZmCip1 mRNA” value is given as “induced”.
For the molecule `O=[N+]([O-])[O-].[Na+]` [nitrate ion, NaNO3], the “expression of the gene 24 hours after the treatment” value in assay [6] (16 mM NaNO3, 24 hours) is reported as “scarcely observed”. For the same molecule, the “time after treatment at which accumulation of ZmCip1 mRNA was confirmed” value in [6] (16 mM NaNO3, nitrogen-deficient green leaves) lay in the range of 5 to 6 h. In addition, in assay [7] (nitrogen-deficient maize green leaves), the “accumulation of ZmCip1 mRNA in green leaves” value was “confirmed”. For the same molecule, in assay [7] (roots), the “expression of ZmCip1 mRNA in roots” value is “scarcely observed”.
As to `N` [ammonium ion], the “time after treatment at which ZmCip1 mRNA was confirmed” value in [8] and in [9] was 5 h throughout. Moreover, the “time after treatment at which the gene was strongly expressed” value in assay [8] and in assay [9] was 6 to 7 h each time.
In the case of `CC1=CC(=O)CC(C)(C)[C@@]1(O)/C=C/C(C)=C\C(=O)O` [abscisic acid], in [4] (10 μM), the “induction of expression of ZmCip1 mRNA” value is “slightly induced”.
